Experimental findings from patent US20260083698A1, “Synergistic Stimulation of Mucociliary Clearance to Treat Mucus Obstruction in Cystic Fibrosis and Other Muco-Obstructive Disorders” (The Board of Trustees of the Leland Stanford Junior …, priority 2022, published 2026) are described below.

One experiment concerns WT piglet tracheas. In words: Mucociliary clearance velocity (MCCV) in ex vivo WT piglet tracheas. Details: species or system pig. The note with it: for Averaged MCCV: 10 μM forskolin, 0.3 μM carbachol, last 20 min of single agonist period, last 50 min of synergy period. The method, then:
MCCV in tracheas was measured from 2 to 5 days old WT piglets (see “Methods” section for details). […] The 8 piglet tracheas were divided into two groups and tested 4 by applying forskolin first and 4 by applying carbachol first, followed by the combined agonists.
These experiments used forskolin to elevate cAMP.
Pig tissues. Newborn WT piglet tracheas (2-5 days old) were directly obtained at the swine facility of UC Davis or from the laboratory of David Stoltz, University of Iowa, via overnight priority express. Postmortem (<1 h) tracheas from young adult Yorkshire pigs (30-50 kg) and 5-12 months old M. putorius ferrets were from animal facilities at Stanford and Gilroy/CA. All methods using animal tracheae were carried out in accordance with relevant guidelines and regulations of Stanford University and animal protocols were approved (Stanford IACUC protocol#: 10,048). Piglet tracheas were shipped in DMEM cell culture medium, other animal tissues were transported to the laboratory in cold PhysioSol™ solution (Hospira, IL/USA) and then transferred to icecold Krebs Ringer bicarbonate (KRB) buffer gassed with 95% O2 and 5% CO2 and kept at 4° C. until use. The KRB buffer contained (in mM): 115 NaCl, 25 NaHCO3, 2.4 K2HPO4, 0.4 KH2PO4, 1.2 MgCl2, 1.2 CaCl2, 10 glucose, and 1.0 μM indomethacin, adjusted to pH 7.2 and ˜290 mOsm at room temperature.
MCCV measurement. Details are in the previous reports (16,59,60). Briefly, each whole length ferret or piglet trachea, or a CF tracheal trim, was cut open along the mid-dorsal line and mounted mucosal side up onto a Sylgard elastomer platform. […] The prepared trachea was placed into a sealed, humidified chamber bubbled continuously with gas (95%/5%-O2/CO2) with the serosal surface bathed with KRB buffer±drugs. […] Then excess apical solution was drained, and tissue was incubated for an additional 10 min before starting baseline measurements of MCCV. Drugs were added by bath replacement with pre-warmed bath+drug(s). Summary MCCV data are reported as a single number and based on the averaged MCCV during the last 20 min of the treatment period unless stated otherwise.
MCCV (all values are in mm/min) was then measured for 90-120 min and plotted as MCCV vs time and agonist(s) in FIG. 8.
It was hypothesized that the synergistic MCC induced by β-adrenergic and cholinergic agonists involved ENaC inhibition.

For experiment [1], the system named is CF ferret (CFTRKO/KO) tracheal glands. In words: Optical measurement of glandular mucus secretion rate, CF ferret. To be noted: 10 mM forskolin, 0.3 mM carbachol, one ferret per order of addition. The source says:
Synergistic glandular mucus secretion in WT pigs, WT ferrets, and CF ferrets. Synergistic increases in MCCV rely partly on increased mucus secretion from submucosal glands. This hypothesis arises from evidence that combinations of [Ca^2+]i-elevating and [cAMP]i-elevating agonists produce synergistically elevated rates of mucus from submucosal glands of humans (22), pigs (24), and ferrets (21). However, in those experiments different specific concentrations of agonists were used. To determine if the same protocols used here produced synergistic increases in secretion from submucosal glands, mucus secretion rates of individual tracheal glands in WT pigs and ferrets and in CF ferrets were measured via time-lapse optical imaging (28) while stimulating them with the same concentrations of agonists and durations of exposure used for MCCV studies. All secretion rates are reported as nanoliters/min/gland. […] Only two CF ferrets were able to be tested (FIG. 3G-I). […] Unstimulated secretion rates were zero, as in WT ferrets. […] The averaged secretion rate across both ferrets to the combined agonists was 1.27±0.15,which is 2.8 times the arithmetic sum of the two agonists used alone, and about half of the response of WT ferrets of 2.46±0.39 (16). Airway tissue procurement. […] Stored images were analyzed by direct measurement or with ImageJ software (V. 1.50i, https://imagej.nih.gov/ij/, NIH, MD/USA).

For a further experiment, the system named is human nasal mucosa. In words: Ciliary beat frequency (CBF) measurement. The note with it: 37° C.; for CBF: human nasal mucosa, KRB, 0.3 μM carbachol, 10 μM forskolin. Here is the method:
Ciliary beat frequency was measured in human nasal mucosa from 4 subjects. CBF (in Hz) of unstimulated tissues at 37° C. in Krebs buffer (KRB) was 10.46±0.95. […] (Note that in this experiment any effects on ASL by the agonists were diluted because the ciliated tissue was studied while submerged in Krebs solution.) […] It was tested to see if CBF might display synergistic increases to the combined agonists. CBF (in Hz) of unstimulated human nasal cells in KRB (Krebs buffer solution) was 6.79±1.69 at 25° C. and 10.46±0.95 at 37° C. (4 subjects, P=0.01) (see “Methods” section). […] Thus, while increases in CBF will contribute to increases in MCCV, they are unlikely to account for the synergistic increase in MCCV seen with the combined agonists (see “Discussion” section). Human tissues. Human nasal mucosal tissues were obtained from nasal biopsies during endoscopic sinus surgeries at Yonsei University Hospital. All methods using human tissues were carried out in accordance with relevant guidelines and regulations of Yonsei University, Seoul, South Korea. All experimental protocols were approved by Yonsei University and informed consent was obtained from all participants prior to the study (Yonsei University-IRB protocol#: 4-2016-1153). Ciliary beat frequency measurement. Ciliary beat frequency was measured using human nasal mucosa in the lab where ferret and pig tracheal mucosa was not readily accessible. Human nasal mucosa from endoscopic nasal biopsies was further dissected under a microscope and placed in a chamber controlled for temperature and pH control. Perfused Krebs bicarbonate buffer was maintained at 37° C. and pH 7.4. Cilia were visualized with a Zeiss microscope equipped with 40× or 60× objectives (Munich, Germany) using differential interference contrast (DIC) optics. […] Images were obtained for 10 s at each condition and experiments were performed in the following sequence: (1) unstimulated CBF at room temperature; (2) unstimulated at 37° C.; (3) CBF at 37° C. with 0.3 μM carbachol; (4) wash for 10 min; […] Each condition was maintained for at least 10 min. […] All recordings at each condition were made at three different areas of the epithelia, and the analyzed CBF was averaged for each experiment. To analyze captured images and calculate CBF, an in-house coding with a MATLAB software (MA, USA) was used.

On to `C[N+](C)(C)CCOC(N)=O` [carbachol], for which the “Averaged MCCV” value with WT piglet tracheas (WT piglet tracheas) was 1.12±0.82 mm/min. For the same molecule, the “effect on MCCV” value in the experiment on WT piglet tracheas (WT piglet tracheas, carbachol or forskolin alone) is on record as “only small increases”. Further, the MCCV in the experiment with WT piglet tracheas (pig tracheas, 10 μM formoterol in place of forskolin, carbachol) is on record as 1.3±0.8 mm/min. For the same molecule, the “average gland mucus secretion rate, single ferret” value in experiment [1] was determined as 0.45±0.16 nanoliters/min/gland. Moreover, in the experiment on human nasal mucosa, the “increase in CBF vs unstimulated” value came out at 5.3% and the CBF turned out to be 11.04±1.3 Hz.
For `C=C[C@@]1(C)CC(=O)[C@]2(O)[C@@]3(C)[C@@H](O)CCC(C)(C)[C@@H]3[C@H](O)[C@H](OC(C)=O)[C@@]2(C)O1` [forskolin], the “Averaged MCCV” value in the experiment with WT piglet tracheas (WT piglet tracheas) was 2.46±0.68 mm/min. Besides, the “average gland mucus secretion rate, single ferret” value in experiment [1] came out at 0.01 nanoliters/min/gland. Further, in the experiment with human nasal mucosa, the “increase in CBF vs unstimulated” value turned out to be 9.8% and the CBF stood at 12.06±1.22 Hz.
